Side-chain parts run from the residue outwards. [ ]: non-standard residue; d: D form. pGlu = O=C1CC[C@@H](C(=O)O)N1
Columns and labels:
BiTE®-Fc fusion = assay: On-chip CD3 diffusion gradient assay, BiTE-Fc secreting cells; conditions: day 5 on chip; FIG. 3A,B
Experimental: (§1) The CD3 diffusion assay peptide reagent was resuspended in DMSO at 1 mg/ml and stored protected from light at −20° C. for long term storage. For short term storage the assay reagent was further diluted to 4 μg/ml in PBS and stored at 4° C. Prior executing the diffusion gradient assay to detect BiTE® secretion on nanofluidic chip the CD3 diffusion assay reagent was diluted in cell culture medium to 0.2 μg/ml concentration, filtered through 22 μm filter, transferred to 96 well plate and incorporated on the chip. The assay reagent was perfused on the chip at 0.014 μl/sec flow rate for the duration of 45 minutes. In FIG. 4, once the equilibration step was complete the assay reagent was flushed out with 250 μl of cell culture medium at a 20/sec flow rate followed by an additional flush with the cell culture medium at the 0.1667 μl/sec flow rate for the duration of 20 mins. The chip was then imaged through TRED filter cube using 900 ms exposure time and 100% illumination settings.
(§2) In FIG. 2, the CD3 diffusion assay reagent was used at 0.125 μg/ml final concentration. […]
(§3) For CD3 diffusion assays shown in FIGS. 3 and 4, the reference assay was run on an empty chip in order to generate reference images used for normalizing the CD3 diffusion assay score against chip position effects and background fluorescence signal. […]
(§4) Next, the specificity of the BiTE® diffusion gradient assay was assessed. […]

IgG-fusion protein = conditions: day 5 on chip; FIG. 3A-C
Experimental: as §1, §2, §3, §4

[1] = system: BiTE® recombinant protein
Experimental: The ability of the CD3-AF594 peptide conjugate to be used for diffusion gradient assays to detect secretion of recombinant CD3 binders on Berkeley Light's nanofluidic chip (FIG. 2A) was assessed next. Cells expressing the BiTE® modality were loaded onto a BLI platform using a standard cell line development workflow. Single cells were deposited in Nanopens™, and subsequently cultured under perfusion for the duration of 6 days. The CD3 reagent was used in a diffusion gradient assay using optimized settings as described herein.

[2] = system: recombinant canonical BiTE® protein; assay: Size exclusion chromatography with fluorescence detection of CD3-AF488 bound to secreted BiTE; assay type: binding; conditions: secretion medium mixed with reagent, capture chromatography, FIG. 1B
Experimental: 100 μl of 0.2 μm filtrated mammalian cell culture samples containing expressed BiTE® constructs featuring human CD3e binding binders were mixed with 2.5 μl peptide-fluorochrome conjugate and transferred into autosampler vials. The vials were placed onto an autosampler connected to an Ultra High Performance Liquid Chromatography ACQUITY UPLC device (Waters, Eschborn, Germany) featuring a fluorescence detector. An analytical size exclusion chromatography BEH200 SEC 1.7 μm column (Waters, Eschborn, Germany) was connected to the UHPLC and equilibrated with a water-based buffer system containing 10 mM Citric Acid, 75 mM Lysine HCl, adjusted to pH 7.0. 10 μl of each prepared sample were applied to the column and eluted using isocratic elution. Detection was performed by using fluorescence detection at 490 nm excitation and 520 nm emission wavelength. […] Both, unpurified secretion medium and purified material were subsequently analyzed by size exclusion chromatography equipped with fluorescence detector (FIG. 1B, C). This setup allowed monitoring of the elution profile of the CD3-AF488 peptide and its bound protein complexes in the context of the whole protein content present in analyzed samples. The UV absorbance (A280 nm) elution profile of purified material allowed for identification of BiTE® monomers, dimers and HMW species (FIG. 1B).

| Substance | detection of secretion of the BiTE®-Fc protein product (BiTE®-Fc fusion) | detection of secretion of the IgG-fusion protein (IgG-fusion protein) | fluorescent signal in pens with BiTE® expressing cells vs empty pens ([1]; 6 days perfusion culture, reagent 0.125 μg/ml, FIG. 2B) | detection of secretion of BiTE® expressing cell lines ([1]; day 5 on chip, FIG. 3A-C) | complex formation with BiTE® recombinant protein (fluorescent SEC elution profile) [2] |
| --- | --- | --- | --- | --- | --- |
| Pyroglutamate-DGNEEMGGC-AF594 [CD3-AF594 conjugate] | detected | failed to detect secretion | High fluorescent signal | efficiently detected secretion | – |
| CD3-AF488 peptide ([pGlu]DGNEEMGGC([C5 maleimide-Alexa Fluor 488])-NH2) | – | – | – | – | formed a complex with the BiTE® recombinant protein |
